Values joined by “and” are separate entries in the source; they are usually repeats but may differ in a detail not shown here. Identical values can stand only once.

The text below walks through data of US20180346731A1, “Formation of Stable Pyranoanthocyanins, and Uses Thereof as Sources of Natural Color” (Ohio State Innovation Foundation, priority 2017, published 2018).

For data set [1] the following is noted: reported in literature; cited from earlier work.
Data set [2] in a line: Direct hydrogen peroxide addition to pigment solutions (HPLC, absorbance). The class given is physicochemical. The procedure: (§1) The semi-purified chokeberry extract, the isolated cyanidin-3-galactoside, and the purified 5-carboxypyranocyanidin-3-galactoside were diluted in pH 3.0 citrate buffer (0.1 M adjusted with HCl) until an absorbance of 1.0 at their respective λmax was reached. Levels of AA of 250, 500, and 1000 mg/L were added using a concentrated ascorbic acid stock solution, and a control consisting of each pigment with the absence of AA was maintained. The control consisted of the pigment in the buffer in the absence of AA. An additional test was performed with the same model juice using hydrogen peroxide, a known degradation product of AA. To determine if AA bleaching was due to formation of H2O2, direct addition of it was investigated. In place of added AA, a 62.2 μL of a 0.3% peroxide solution was added to match the molar equivalency of the 500 mg/L AA level, which was 2.84 mM.
All samples were brought to the same final volume with additional citrate buffer. […] Samples were stored in the dark at 25° C. in an incubator. UV-Vis spectrophotometry, colorimetry, and HPLC analyses were conducted over a 5 day period following the addition of ascorbic acid or hydrogen peroxide. […]
Auto-oxidation of AA in solution can give rise to H2O2 formation, a powerful bleaching agent that can further lead to rapid ACN degradation. […] HPLC profiles as well as maximum absorbance and λmax of the solutions were evaluated.

Data set [3] can be described thus: HPLC monitoring of pigment peaks with ascorbic acid. The class given is physicochemical. The procedure: Prior to experimentation, pigments were evaluated for purity by using an analytical HPLC only different from the previously listed one by the use of different pumps (LC-20AD, Shimadzu, Md., US). Purified pigments were filtered using the Phenex RC 0.45 μm membranes. A binary system with 1 mL/min flow rate was used: solvent A: 4.5% formic acid in HPLC grade water and solvent B: HPLC grade acetonitrile. The gradient began with an isocratic flow of 6% solvent B for 17 minutes (elution of primary anthocyanins), increasing to 15% solvent B by 45 minutes (elution of primary pyranoanthocyanins), and to 40% solvent B by 50 minutes. A 10 μL injection volume was loaded onto a Phenomenex Kinetix 5 μm EVO C18 100 A. 150×4.6 mm column and Phenomenex Ultra UHPLC EVO C18 guard cartridge attached.
as §1
(§2) All samples were brought to the same final volume with additional citrate buffer. […] Samples were stored in the dark at 25° C. in an incubator. UV-Vis spectrophotometry, colorimetry, and HPLC analyses were conducted over a 5 day period following the addition of ascorbic acid or hydrogen peroxide. UV-Vis spectral data was collected every hour for the first 8 hours, and then at 12 hr, and daily from that point on for 5 days. […] HPLC analyses were conducted on days 0, 1, 3, and 5. All treatments were run in triplicate.
Prepared solutions were monitored to determine the formation of potential degradation products or profile changes. Using the analytical HPLC system and conditions described, chromatograms were monitored with the max plot (260-700 nm), 490 nm (near λmax of 5-carboxypyranocyanidin-3-galactoside), and 520 nm (near ma of cyanidin-3-galactoside). A max plot of 470-520 nm was later added to standardize changes in the AUC for all three pigments and their degradation products.

Data set [4] is described as follows: Colorimetry (CIEL*c*h*, ΔE) of pigment solutions with ascorbic acid. In kind it is physicochemical. The procedure: as §1, §2
Using UV-Vis spectral data (5 nm steps, 380-700 nm) in combination with software written for color conversion, absorbance data was translated to CIE-L*c*h*. The calculations for CIE-L*c*h* implemented by the software used CIE relative spectral power distribution for a D65 standard illuminants and 10° observer angle function. Color data is reported as L* (lightness), c* (chroma), and h* (hue angle).
Total color changes (ΔE) were calculated as the color change from day 0 to 5 for each respective treatment, and presented in Table 4.
Numbers are means of 3 replications, followed by (standard deviations). ΔE: total color change from day 0 (control) to day 5.

Data set [5] is described as follows: UV-Vis absorbance loss and first-order bleaching kinetics of pigment solutions with ascorbic acid (pH 3.0 citrate buffer, 25° C., dark). In kind it is physicochemical. The settings on record: for K (reaction rate, first-order) / t1/2: 25° C. dark. The procedure:
The semi-purified chokeberry extract, the isolated cyanidin-3-galactoside, and the purified 5-carboxypyranocyanidin-3-galactoside were diluted in pH 3.0 citrate buffer (0.1 M adjusted with HCl) until an absorbance of 1.0 at their respective λmax was reached. Levels of AA of 250, 500, and 1000 mg/L were added using a concentrated ascorbic acid stock solution, and a control consisting of each pigment with the absence of AA was maintained. The control consisted of the pigment in the buffer in the absence of AA. An additional test was performed with the same model juice using hydrogen peroxide, a known degradation product of AA. To determine if AA bleaching was due to formation of H2O2, direct addition of it was investigated. In place of added AA, a 62.2 μL of a 0.3% peroxide solution was added to match the molar equivalency of the 500 mg/L AA level, which was 2.84 mM. All samples were brought to the same final volume with additional citrate buffer. […] Samples were stored in the dark at 25° C. in an incubator. UV-Vis spectrophotometry, colorimetry, and HPLC analyses were conducted over a 5 day period following the addition of ascorbic acid or hydrogen peroxide. UV-Vis spectral data was collected every hour for the first 8 hours, and then at 12 hr, and daily from that point on for 5 days. […] HPLC analyses were conducted on days 0, 1, 3, and 5. All treatments were run in triplicate. A SpectraMax 190 Microplate Reader (Molecular Devices, Sunnyvale, Calif., U.S.) with a 96-well plate (poly-D-lysine coated polystyrene) were used for the evaluation of absorbance from 380-700 nm, 1 nm intervals. Aliquots (200 uL) of samples were loaded into individual wells, and a blank consisted of the same citrate buffer used. Because of the rapid nature of AA-induced color loss, degradation kinetics were evaluated in terms of change in maximum absorbance at the original λmax over time. Bleaching is a first-order reaction, typical of ACN degradation, and was modeled as such in determining the reaction rate and half-life. The decrease in maximum absorbance correlated with an increase in lightness (L*) as well as the decrease in chroma (c*). The reduction in maximum absorbance did closely follow first-order kinetics for chokeberry extract and cyanidin-3-galactoside but slightly deviated for 5-carboxypyranocyanidin-3-galactoside. […] The kinetics results for each pigment and AA level can be found in Table 3 below.

As to `OC[C@H]1O[C@@H](Oc2cc3c(O[C@@H]4O[C@H](CO)[C@@H](O)[C@H](O)[C@H]4O)cc(O)cc3[o+]c2-c2ccc(O)c(O)c2)[C@H](O)[C@@H](O)[C@@H]1O` [Cy-3-glu-5-glu], the pKh in data set [1] is 2.23.

For `O=C(O)C1=Cc2c(O[C@@H]3O[C@H](CO)[C@H](O)[C@H](O)[C@H]3O)c(-c3ccc(O)c(O)c3)[o+]c3cc(O)cc(c23)O1` [5-carboxypyranocyanidin-3-galactoside], the “resistance to bleaching with H2O2” value in data set [2] was “more resistant to bleaching compared to anthocyanins”. Also, the “target peaks left after 1 day” value in data set [3] (1000 mg/L AA, HPLC) is 10%. Besides, the “reduction of pigment peak by day 1” value in data set [3] (1 g/L AA, HPLC AUC) is given as 93%. Further, in data set [3] (1 g/L AA, HPLC AUC), the “reduction of pigment peak by day 5” value was found to be 99%. Moreover, the “Chroma Day 0” value in data set [4] (250 mg/L AA) is given as 55.2 (0.4); in data set [4] (500 mg/L AA), 54.7 (0.3); in data set [4] (Control, no AA) it was 54.3 (0.7). For the same molecule, the “Chroma Day 5” value in data set [4] (250 mg/L AA) is recorded as 43.2 (0.2); in data set [4] (500 mg/L AA), 39.2 (0.3); in data set [4] (1000 mg/L AA), 36.2 (0.3); in data set [4] (Control, no AA) it was 49.9 (1.3). The “Hue Angle Day 0” value was 50.7 (0.2) ° in data set [4] (250 mg/L AA); 50.4 (0.1) ° in data set [4] (500 mg/L AA); 51.0 ° and 51.0 (0.1) ° in data set [4] (1000 mg/L AA); 50.0 (0.2) ° in data set [4] (Control, no AA). In addition, the “Hue Angle Day 5” value was 46.9 (.3) ° in data set [4] (250 mg/L AA); 48.3 (0.4) ° in data set [4] (500 mg/L AA); 57.1 ° and 57.1 (0.7) ° in data set [4] (1000 mg/L AA); 47.5 (0.6) ° in data set [4] (Control, no AA). In addition, the “Lightness Day 0” value is listed as 81.9 (0.1) in data set [4] (250 mg/L AA); 82.1(0.3) in data set [4] (500 mg/L AA); 82.2 (0.2) in data set [4] (Control, no AA, mean (SD), n=3). In addition, the “Lightness Day 5” value in data set [4] (250 mg/L AA) was 82.8 (0.3); in data set [4] (500 mg/L AA), 83.6 (0.4); in data set [4] (1000 mg/L AA), 83.7 (0.2); in data set [4] (Control, no AA), 82.2 (0.6). For the same molecule, the “ΔE Over 5 days” value in data set [4] (250 mg/L AA) is on record as 4.5 (0.2); in data set [4] (500 mg/L AA), 5.0 (0.2); in data set [4] (1000 mg/L AA) it was 5.2 (0.5); in data set [4] (1000 mg/L AA, listed as 5-Carboxypyranocyanidin-3-galactoside), 5.2; in data set [4] (Control, no AA), 2.1 (0.4). In addition, the “L* after 48 hours” value in data set [4] (1000 mg/L AA, 48 hours) was determined as 86.6. The “time until significant change in chroma as compared to the control” value in data set [4] (all levels of AA) was determined as 48 h. In data set [4] (day 0), the initial hue angle was determined as 50 °. The “K (reaction rate, first-order)” value in data set [5] (250 mg/L AA) came to 2.69E−03; in data set [5] (500 mg/L AA), 4.61E−03; in data set [5] (1000 mg/L AA) it was 1.08E−02; in data set [5] (Control, no AA, absorbance at λvis-max), 7.08E−04. Besides, the t1/2 turned out to be 258 h in data set [5] (250 mg/L AA), 150 h in data set [5] (500 mg/L AA) and 64 h in data set [5] (1000 mg/L AA). In addition, in data set [5] (500 mg/L AA, 5 day period), the “reduction in maximum absorbance” value is on record as 38%. Also, the “λmax after hypsochromic change” value in data set [5] (500 mg/L AA, after treatment) is on record as 484 nm. Moreover, in data set [5] (500 mg/L AA, start), the “λmax before hypsochromic change” value was 491 nm. Further, the “time before a significant difference (p<0.05) in maximum absorbance from time 0” value in data set [5] (all levels of AA added) was 24 h. In data set [5] (over the 5 days of AA treatment, regardless of AA level), the “hypsochromic shift of λmax” value is given as at most 10 nm.
